PMC7738871, “Covalent modification of Keap1 at Cys77 and Cys434 by pubescenoside a suppresses oxidative stress-induced NLRP3 inflammasome activation in myocardial ischemia-reperfusion injury” (Theranostics, 2021)

What was measured:
OGD/R-induced H9c2 cells = assay: OGD/R-induced injury, MTT viability, H9c2; assay type: cell-based, rat; settings: 100 μM, compared with PBA
Method: For OGD/R treatment, H9c2 cells were washed twice with phosphate buffered saline (PBS). The medium was changed to glucose and serum free DMEM, and H9c2 cells were incubated in an incubator with 95% N2 and 5% CO2 at 37 °C. After 6 h, the medium was replaced with DMEM containing 10% FBS and 1% PS. Then H9c2 cells were returned to a normal incubator with 5% CO2 balanced with air at 37 °C for the indicated time.
Cell viability was determined by MTT assays. PBA was prepared to a stock solution dissolved in dimethyl sulfoxide (DMSO). RAW264.7, H9c2 cells, primary mouse cardiomyocytes were treated with different doses of PBA, and DMSO only as control for 48 h for the toxicity. In addition, H9c2 cells or primary mouse cardiomyocytes were treated with the indicated doses of PBA, diazoxide as positive control, DMSO only as control, then cultured with or without OGD/R treatment. At the end of the experiments, MTT was added into each well at the concentration of 0.5 mg/ml, and incubated at 37 °C for 4 h. After removal of the supernatant, 150 μL of DMSO was added to solubilize the formazan products. And the solution was measured at the absorbance of 490 nm by a spectrophotometer (Thermo Fisher Scientific, MA, USA). The results of the MTT assay in all groups were normalized to the control group with DMSO only treatment.

[1] = test system: Keap1-dependent Nrf2 ubiquitination; assay: Keap1-dependent Nrf2 ubiquitination in 293T cells; assay type: cell-based, human; settings: WT Keap1, 30 μM PBA 20 h, 5 μM MG132 4 h
Method: Alkylation of the BTB domain of Keap1 by covalent modifiers contributes to the disruption of the Keap1-Cul3 interactions, leading to Nrf2 activation. Next, we investigated the effect of PBA on the modulation of Nrf2 ubiquitination as Nrf2 stability is controlled by ubiquitin-mediated proteasomal degradation. First, 3X Flag-Keap1, Myc-Nrf2 and Ub plasmids were transfected into 293T cells and then, the cells were treated with 30 μM PBA for 20 h and 5 μM MG132 for another 4 h. Cell lysates were pulled down using anti-Myc beads, and immunopurified Nrf2 was examined for the occurrence of Ub by western blotting. […] As shown in Figure 6E-F, PBA could disrupt the interaction of Keap1 and Cul3 in WT-Keap1 cells, while the disruption was blocked in the Cys77S and Cys434-Keap1 mutant cells.
Figure 6 PBA suppresses Keap1-mediated ubiquitination of Nrf2 by disrupting the interaction between Cul3 and Keap1. (A and B) PBA suppressed Nrf2 ubiquitination in a Keap1-Cys77 and C434-dependent manner. First, 293T cells were transfected with WT-Keap1 or C77S and C434S-Keap1, Myc-Nrf2, and Ub plasmids for 24 h and treated with 30 μM PBA. The cell lysates were immunoprecipitated using anti-Myc beads, and the ubiquitination level was evaluated using the anti-Ub antibody. (C and D) PBA induced the dissociation of the Nrf2-Keap1 complex. Then, 293T cells were cotransfected with WT-Keap1 and Flag-Nrf2 plasmids for 24 h and treated with 30 μM PBA for 12 h. The cell lysates were immunoprecipitated with the anti-Flag antibody, and the level of Nrf2 was assessed using the anti-Nrf2 antibody. (E and F) PBA disrupted the interaction between Cul3 and Keap1. […] The cell lysates were immunoprecipitated with the anti-Flag antibody, and the level of Cul3 was measured using the anti-Cul3 antibody. #p < 0.05, ##p < 0.01, ###p < 0.001, the control vs DMSO; *p < 0.05,**p < 0.01, ***p < 0.001, PBA or tBHQ vs DMSO. […] Cell viability was measured by MTT assays. #p < 0.05, ###p < 0.001, the control vs OGD/R; **p < 0.01, ***p < 0.001, OGD/R+PBA vs OGD/R.

[2] = test system: T1, interaction between Keap1 and Nrf2; assay: Co-IP of Keap1 and Nrf2 in 293T cells; assay type: cell-based, human; settings: WT-Keap1, 30 μM PBA
T1 construct: expressed in transfected cells; host or cells: 293T
Method: Figure 6 PBA suppresses Keap1-mediated ubiquitination of Nrf2 by disrupting the interaction between Cul3 and Keap1. (A and B) PBA suppressed Nrf2 ubiquitination in a Keap1-Cys77 and C434-dependent manner. First, 293T cells were transfected with WT-Keap1 or C77S and C434S-Keap1, Myc-Nrf2, and Ub plasmids for 24 h and treated with 30 μM PBA. The cell lysates were immunoprecipitated using anti-Myc beads, and the ubiquitination level was evaluated using the anti-Ub antibody. (C and D) PBA induced the dissociation of the Nrf2-Keap1 complex. Then, 293T cells were cotransfected with WT-Keap1 and Flag-Nrf2 plasmids for 24 h and treated with 30 μM PBA for 12 h. The cell lysates were immunoprecipitated with the anti-Flag antibody, and the level of Nrf2 was assessed using the anti-Nrf2 antibody. (E and F) PBA disrupted the interaction between Cul3 and Keap1. The 293T cells were transfected with the WT-Keap1 or C77S-C434S-Keap1 plasmids for 24 h and treated with 30 μM PBA for 12 h. The cell lysates were immunoprecipitated with the anti-Flag antibody, and the level of Cul3 was measured using the anti-Cul3 antibody. #p < 0.05, ##p < 0.01, ###p < 0.001, the control vs DMSO; *p < 0.05,**p < 0.01, ***p < 0.001, PBA or tBHQ vs DMSO. […] Primary mouse cardiomyocytes were transfected with mouse WT-Keap1 or C77S and C434S-Keap1 mutant vectors. After 24 h, the cells were treated with the indicated doses of PBA and subjected to OGD conditions as described in the Method section for 3 h and under normal conditions for another 18 h. Cell viability was measured by MTT assays. #p < 0.05, ###p < 0.001, the control vs OGD/R; **p < 0.01, ***p < 0.001, OGD/R+PBA vs OGD/R.
To investigate the effect of PBA on the interaction of Keap1 and Nrf2, we transfected 293T cells with Flag-Keap1 and Myc-Nrf2 plasmids, and treated them with 30 μM PBA for 24 h. The protein expression of Nrf2 was measured by western blotting analysis followed by immunoprecipitation with Flag beads.

SMILES | protective effect against OGD/R induced injury (positive control) (OGD/R-induced H9c2 cells) | Keap1-dependent Nrf2 ubiquitination [1] | interaction between Keap1 and Nrf2 (Co-IP) [2]
CC1=NS(=O)(=O)c2cc(Cl)ccc2N1 [diazoxide, reference compound] | protective effect of PBA seemed equal to that of 100 μM diazoxide |  | 
CC(C)(C)c1cc(O)ccc1O [tBHQ, reference compound] |  | significantly suppressed | did not affect it
